In article PMC12904036, “Mechanism‐Driven Screening of Membrane‐Targeting and Pore‐Forming Antimicrobial Peptides” (Advanced Science, 2025):
Read-outs that look alike come from different tables or passages of the source. Ends that are not written are not given here.

Assays:
[1] = tested on: Staphylococcus aureus ATCC 25923; type: cell-based; settings: ATCC 25923, 20 h
Description: (§1) The minimal inhibitory concentration (MIC) of all screened peptides were determined by the microbroth dilution method. Bacterial strains included four Gram‐negative strains (Acinetobacter baumanii ATCC 17978, Acinetobacter baumanii ATCC 19606, Escherichia coli ATCC 25922, Escherichia coli DH5 α ) and seven Gram‐positive strains (Staphylococcus aureus ATCC 25923, Staphylococcus aureus ATCC 6538, Bacillus subtilis ATCC 6633, Enterococcus faecalis ATCC 29212, Micrococcus luteus CMCC(B) 28001, Staphylococcus capitis ATCC 27842, Staphylococcus hominis ATCC 27844). Bacteria were incubated overnight at 37 °C and diluted to 5 × 10^5 cfu·mL^−1. Then 99 µL bacterial suspension was added into each well of a 96‐well plate. Peptides were dissolved in cation adjusted Mueller‐Hinton (CAMHB) medium at an initial concentration of 1 mg·mL^−1 and then diluted in twofold gradient concentrations, ranging from 0.125 to 128 µg·mL^−1 with 1 µL in each well. The plate was placed in incubator for 20 h at 37 °C. The lowest concentration of peptide causing no observed bacteria grow was its MIC.

[2] = tested on: Enterococcus faecalis ATCC 29212; type: cell-based; settings: ATCC 29212, 20 h
Description: as §1

[3] = tested on: Acinetobacter baumanii ATCC 19606; type: cell-based; settings: ATCC 19606, 20 h
Description: as §1

[4] = tested on: Staphylococcus capitis ATCC 27842; type: cell-based; settings: ATCC 27842, 20 h
Description: as §1

[5] = tested on: Acinetobacter baumanii ATCC 17978; type: cell-based; settings: ATCC 17978, 20 h
Description: as §1

[6] = tested on: Bacillus subtilis ATCC 6633; type: cell-based; settings: ATCC 6633, 20 h
Description: as §1

[7] = tested on: Staphylococcus hominis ATCC 27844; type: cell-based; settings: ATCC 27844, 20 h
Description: as §1

Escherichia coli DH5α = type: cell-based; settings: 20 h
Description: as §1

[8] = tested on: Micrococcus luteus CMCC(B) 28001; type: cell-based; settings: CMCC(B) 28001, 20 h
Description: as §1

[9] = tested on: Escherichia coli ATCC 25922; type: cell-based; settings: ATCC 25922, 20 h
Description: as §1

[10] = tested on: Staphylococcus aureus ATCC 6538; type: cell-based; settings: ATCC 6538, 20 h
Description: as §1

[11] = synthesis report, ref ChinaPeptides Co., Ltd. quality reports, Figure S7, cited from earlier work
HEK293T cells = assay: Cytotoxicity, Alamar Blue assay; type: cell-based
Description: Cytotoxicity was evaluated using the Alamar Blue assay on HEK293T cells. HEK293T cells were cultured in DMEM supplemented with 10% FBS and incubated at 37 °C with 5% CO2. Amphotericin B and staurosporine were used as controls. Peptide solutions were diluted in PBS (pH 7.4) with final concentrations ranging from 1 to 128 µg·mL^−1. The cells were treated with peptides for 72 h. After that, 10 µL Alamar Blue was added into each well. The plate was incubated for 4 hours under dark condition and detected the absorbance at 570 nm. The inhibition rate of cell growth was calculated via (OD570, peptide ‐ OD570, PBS) / (OD570, staurosporine ‐ OD570, PBS). The half maximal cytotoxic concentration (CC50) was fitted with GraphPad Prism. Each test was conducted in triplicate.

| Molecule | MIC S. aureus ATCC 25923 [1] | MIC E. faecalis ATCC 29212 [2] | MIC A. baumannii ATCC 19606 [3] | MIC S. capitis ATCC 27842 [4] | MIC A. baumannii ATCC 17978 [5] | MIC B. subtilis ATCC 6633 [6] | MIC S. hominis ATCC 27844 [7] | MIC E. coli DH5α (Escherichia coli DH5α) | MIC M. luteus CMCC(B) 28001 [8] | MIC E. coli ATCC 25922 [9] | MIC S. aureus ATCC 6538 [10] | Solubility ([11]; in 15%ACN/85%H2O) | Cytotoxicity CC50 HEK293T (HEK293T cells) | Solubility ([11]; in 25%ACN/75%H2O) | Cytotoxicity CC50 HEK293T (HEK293T cells; HEK293T, Alamar Blue, 72 h treatment, 1 to 128 µg/mL, absorbance 570 nm, triplicate) |
| --- | --- | --- | --- | --- | --- | --- | --- | --- | --- | --- | --- | --- | --- | --- | --- |
| IYKILQLFHKRFKKGFFG [Peptide 1304] | 128 µg/mL | 128 µg/mL | 16 µg/mL | 4 µg/mL | 16 µg/mL | 4 µg/mL | 4 µg/mL | 32 µg/mL | 16 µg/mL | 64 µg/mL | 16 µg/mL | 1000 µg/mL | – | – | – |
| KKIASIIYAHVKALRARKILDNLKRLAANRP [Peptide 615] | – | – | 16 µg/mL | 16 µg/mL | 32 µg/mL | 16 µg/mL | 8 µg/mL | 8 µg/mL | 64 µg/mL | 64 µg/mL | – | 1000 µg/mL | – | – | – |
| KVKVLIIRKLTRHIAKLKSKK [Peptide 58] | – | 128 µg/mL | 128 µg/mL | 4 µg/mL | – | 8 µg/mL | 2 µg/mL | – | 8 µg/mL | – | – | 1000 µg/mL | – | – | – |
| C[C@@H]1[C@H](O)[C@@H](C)/C=C/C=C/C=C/C=C/C=C/C=C/C=C/[C@H](O[C@@H]2O[C@H](C)[C@@H](O)[C@H](N)[C@@H]2O)C[C@@H]2O[C@](O)(C[C@@H](O)C[C@@H](O)[C@H](O)CC[C@@H](O)C[C@@H](O)CC(=O)O[C@H]1C)C[C@H](O)[C@H]2C(=O)O [Amphotericin B] | – | – | – | – | – | – | – | – | – | – | – | – | 67.06 µg/mL | – | – |
| GFKSKLEQISGICRPLFAAMWK [Peptide 68] | – | – | – | 16 µg/mL | – | 64 µg/mL | 32 µg/mL | – | 128 µg/mL | – | – | – | > 128 µg/mL | 1000 µg/mL | – |
| AKLVALVNKFIGYLKQNTYC [Peptide 201] | – | – | – | – | – | 32 µg/mL | – | – | – | – | – | – | – | 1000 µg/mL | – |
| CN[C@@H]1C[C@H]2O[C@@](C)([C@@H]1OC)n1c3ccccc3c3c4c(c5c6ccccc6n2c5c31)C(=O)NC4 [Staurospotine, Staurosporine] | – | – | – | – | – | – | – | – | – | – | – | – | – | – | 0.26 µg/mL |
| GPIHRLINPFFNLLQGIFTN [Peptide 98] | – | – | – | – | – | 32 µg/mL | – | – | 128 µg/mL | – | – | – | – | 1000 µg/mL | – |
| KLAKLLKLLLWAQNELDQKK [Peptide 623] | 128 µg/mL | – | 32 µg/mL | 64 µg/mL | 32 µg/mL | 8 µg/mL | 16 µg/mL | 128 µg/mL | 64 µg/mL | 128 µg/mL | 32 µg/mL | 1000 µg/mL | – | – | – |
